Experimental data from US6846844B2, “Compounds and compositions for delivering active agents” (Emisphere Technologies, Inc., priority 2000, dated 2005).

Legend:
[1] = Intracolonic delivery of heparin with delivery agent compound, activated partial thromboplastin time (APTT); format: in vivo, Sprague-Dawley rats; conditions: rats, intracolonic (IC); compound dose 50 mg/kg, heparin dose 25 mg/kg, volume dose 1 ml/kg; five rats; baseline about 20 sec
Procedure: Intracolonic (IC) dosing solutions containing a delivery agent compound and heparin sodium USP in 25% aqueous propylene glycol were prepared. Either the sodium salt of the delivery agent compound was used or the free acid was converted to the sodium salt with one equivalent of sodium hydroxide. Typically, the delivery agent compound and heparin (about 166-182 IU/mg) were mixed by vortex as dry powders. This dry mixture was dissolved in 25% v/v aqueous propylene glycol, vortexed and placed in a sonicator (about 37° C.). The pH was adjusted to about 7 (6.5 to 8.5) with aqueous NaOH (2N). The dosing solution was sonicated to produce a clear solution. The final volume was adjusted to 3.0 mL. The final delivery agent compound dose, heparin dose and volume dose amounts are listed below in Table 2.
The typical dosing and sampling protocols were as follows. […]
Citrated blood samples were collected by cardiac puncture following the administration of ketamine (88 mg/kg), typically at time=0.25, 0.5, 1.0 and 1.5 hours. Heparin activity was determined by utilizing the activated partial thromboplastin time (APTT) according to the method of Henry, J. B., Clinical Diagnosis and Management by Laboratory Methods, Philadelphia, Pa., W. B. Saunders (1979). […]

melting point	SMILES	Mean Peak APTT (sec) ± SD [1]
171 to 173 °C	Cc1c(Cl)cc(NC(=O)CC(C)CC(=O)O)c(O)c1Cl (stereo not drawn) [Compound 1, 3R-5-[(3,5-dichloro-2-hydroxy-4-methylphenyl)amino]-3-methyl-5-oxopentanoic acid]	205.8 ± 32.4 s
117 to 118 °C	Cc1ccc(NC(=O)C[C@@H](C)CC(=O)O)c(O)c1 [Compound 2, (3R)-5-[(2-hydroxy-4-methylphenyl)amino]-3-methyl-5-oxo-pentanoic acid]	–
